The target in this assay is T1, human Nav1.6 (hNav1.6) (Homo sapiens, UniProt Q9UQD0).
T1 construct: expressed in transfected cells; host or cells: HEK-293
T1 sequence (Q9UQD0 whole entry): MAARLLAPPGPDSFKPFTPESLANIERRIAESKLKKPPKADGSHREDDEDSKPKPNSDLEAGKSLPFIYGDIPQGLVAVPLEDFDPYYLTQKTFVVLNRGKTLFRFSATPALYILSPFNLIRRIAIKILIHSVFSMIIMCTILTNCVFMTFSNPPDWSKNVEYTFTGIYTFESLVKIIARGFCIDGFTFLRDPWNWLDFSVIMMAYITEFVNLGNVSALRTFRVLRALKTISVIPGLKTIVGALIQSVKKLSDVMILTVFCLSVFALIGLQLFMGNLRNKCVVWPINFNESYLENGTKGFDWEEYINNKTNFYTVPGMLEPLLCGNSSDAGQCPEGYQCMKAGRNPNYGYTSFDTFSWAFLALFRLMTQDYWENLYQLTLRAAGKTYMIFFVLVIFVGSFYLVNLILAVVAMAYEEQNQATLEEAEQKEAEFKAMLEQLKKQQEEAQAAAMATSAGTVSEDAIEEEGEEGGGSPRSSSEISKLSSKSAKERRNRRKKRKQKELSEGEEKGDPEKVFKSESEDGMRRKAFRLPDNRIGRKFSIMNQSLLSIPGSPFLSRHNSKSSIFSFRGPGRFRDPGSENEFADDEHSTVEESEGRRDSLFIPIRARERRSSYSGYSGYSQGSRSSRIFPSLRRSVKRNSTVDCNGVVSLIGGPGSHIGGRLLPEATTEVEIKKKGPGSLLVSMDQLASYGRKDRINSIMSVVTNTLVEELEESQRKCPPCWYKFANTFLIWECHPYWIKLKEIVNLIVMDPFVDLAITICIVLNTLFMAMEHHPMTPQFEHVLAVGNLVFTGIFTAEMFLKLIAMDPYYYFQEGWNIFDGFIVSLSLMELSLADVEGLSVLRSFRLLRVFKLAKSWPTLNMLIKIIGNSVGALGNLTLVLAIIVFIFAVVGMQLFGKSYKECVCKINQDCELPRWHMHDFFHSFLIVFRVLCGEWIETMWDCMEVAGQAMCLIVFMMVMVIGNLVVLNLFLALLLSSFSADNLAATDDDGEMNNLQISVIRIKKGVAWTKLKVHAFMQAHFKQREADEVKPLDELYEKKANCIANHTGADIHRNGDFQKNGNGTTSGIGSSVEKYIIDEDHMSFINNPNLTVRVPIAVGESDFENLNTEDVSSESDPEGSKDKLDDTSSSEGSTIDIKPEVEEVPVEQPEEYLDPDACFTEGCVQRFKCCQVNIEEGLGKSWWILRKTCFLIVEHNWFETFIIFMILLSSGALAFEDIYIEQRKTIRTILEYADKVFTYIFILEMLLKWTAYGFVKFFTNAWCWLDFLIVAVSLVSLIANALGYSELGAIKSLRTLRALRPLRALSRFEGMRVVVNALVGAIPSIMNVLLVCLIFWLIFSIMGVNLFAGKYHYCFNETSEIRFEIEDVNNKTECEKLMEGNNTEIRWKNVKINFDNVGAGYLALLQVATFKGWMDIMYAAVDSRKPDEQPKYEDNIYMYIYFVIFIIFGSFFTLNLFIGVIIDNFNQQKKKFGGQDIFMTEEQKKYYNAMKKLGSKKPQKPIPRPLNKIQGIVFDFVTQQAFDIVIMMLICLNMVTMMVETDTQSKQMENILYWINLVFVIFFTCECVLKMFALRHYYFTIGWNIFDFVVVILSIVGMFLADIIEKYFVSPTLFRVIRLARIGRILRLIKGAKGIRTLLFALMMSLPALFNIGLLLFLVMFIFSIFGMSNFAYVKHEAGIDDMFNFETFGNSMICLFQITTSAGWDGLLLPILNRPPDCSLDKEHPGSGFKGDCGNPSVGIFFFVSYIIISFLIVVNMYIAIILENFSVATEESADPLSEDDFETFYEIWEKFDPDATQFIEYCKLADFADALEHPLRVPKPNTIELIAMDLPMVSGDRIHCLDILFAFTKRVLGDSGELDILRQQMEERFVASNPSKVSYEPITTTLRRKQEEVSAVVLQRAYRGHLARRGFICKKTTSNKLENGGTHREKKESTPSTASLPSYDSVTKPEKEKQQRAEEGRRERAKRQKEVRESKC
Nature of the assay: Modulation of late sodium current (INaL), PatchXpress high throughput electrophysiology. It counts as cell-based. Conditions: HEK293; 1 μM compound; HEK-293 cells expressing recombinant hNav1.6; late current evoked by 300 nM ATX-II. On the procedure:
Functional characterization of exemplary compounds to modulate INaL expressed by the Nav1.6 voltage-gated sodium channel was accomplished using the PatchXpress' high throughput electrophysiology platform (Molecular Devices, Sunnyvale, Calif.). HEK-293 cells expressing recombinant, human Nav1.6 (hNav1.6) were grown in DMEM/high-glucose Dulbecco's modified, 10% FBS, 2 mM sodium pyruvate, 10 mM HEPES and 400 μg/mL G418. Cells were grown to 50%-80% confluency prior to harvesting. […] The onboard liquid handling facility of the PatchXpress was used for dispensing cells and applying test compounds. Nav late currents were evoked by the application of 300 nM ATX-II. […] INaL amplitude and stability were determined by analyzing the mean current amplitude over the final 20 ms of thetest pulse. […] Percent steady-state inhibition of INaL was calculated as: [(INaL_compound)/(INaL_control)]*100, where INaL_compound and INaL_control represent INaL recorded in the presence or absence of compound, respectively.
Broadly, the inhibition is the share of the control response that was lost under treatment. As for `COc1cc(OC(F)(F)F)ccc1-c1ccc2ncc(C(F)(F)F)n2c1` [Compound 2], the inhibition at 1 µM is more than 50%.
The same measure for `FC(F)(F)COc1ccc(-c2ccc3ncc(C(F)(F)F)n3c2)cn1` [Compound 3]: more than 50%; for `COC(C)(C)c1ccc(-c2ccc3ncc(C(F)(F)F)n3c2)cc1` [Compound 4]: more than 50%; for `N#CC1(c2ccc(-c3ccc4ncc(C(F)(F)F)n4c3)cc2)CC1` [Compound 5]: less than 50%.
On to `FC(F)(F)Oc1ccc(-c2ccc3nccn3c2)cc1` [Compound 6], for which the inhibition at 1 µM was less than 50%.
`COc1cc(OC(F)(F)F)ccc1-c1ccn2nccc2c1` [Compound 14, 5-[2-methoxy-4-(trifluoromethoxy)phenyl]pyrazolo[1,5-a]pyridine]: the inhibition at 1 µM is more than 50%.
Turning to `FC(F)(F)COc1ccc(-c2ccn3nccc3c2)cn1` [Compound 15, 5-[6-(2,2,2-trifluoroethoxy)-3-pyridyl]pyrazolo[1,5-a]pyridine], the inhibition at 1 µM was more than 50%.
In the case of `FC(F)(F)Oc1ccc(-c2cnc3nccn3c2)cc1` [Compound 16], the inhibition at 1 µM is less than 50%.
On to `FC(F)(F)Oc1ccc(-c2cnc3ncc(C(F)(F)F)n3c2)cc1` [Compound 17], for which the inhibition at 1 µM was less than 50%.
As to `FC(F)(F)Oc1ccc(-c2ccc3nccn3n2)cc1` [Compound 18], the inhibition at 1 µM was less than 50%.
As for `FC(F)(F)Oc1ccc(-c2ccc3ncc(C(F)(F)F)n3n2)cc1` [Compound 19], the inhibition at 1 µM was less than 50%.
Turning to `FC(F)(F)Oc1ccc(-c2cn3ccnc3cn2)cc1` [Compound 20], the inhibition at 1 µM was less than 50%.
Consider `FC(F)(F)Oc1ccc(-c2cn3c(C(F)(F)F)cnc3cn2)cc1` [Compound 21], for which the inhibition at 1 µM is more than 50%.
The same measure for `Cc1cc(OC(F)(F)F)ccc1-c1cc2ccnn2cn1` [Compound 22, 5-[2-methyl-4-(trifluoromethoxy)phenyl]pyrazolo[1,5-c]pyrimidine]: less than 50%; for `Cc1cc(OC(F)(F)F)ccc1-c1cc2c(C(F)(F)F)cnn2cn1` [Compound 23, 5-[2-methyl-4-(trifluoromethoxy)phenyl]-3-(trifluoromethyl)pyrazolo[1,5-c]pyrimidine]: less than 50%.
For the molecule `FC(F)(F)Oc1ccc(-c2cc3ccnn3cn2)cc1` [Compound 24, 5-[4-(trifluoromethoxy)phenyl]pyrazolo[1,5-c]pyrimidine], the inhibition at 1 µM is less than 50%.
The same measure for `FC(F)(F)Oc1ccc(-c2cc3c(C(F)(F)F)cnn3cn2)cc1` [Compound 25a, 5-[4-(trifluoromethoxy)phenyl]-3-(trifluoromethyl)pyrazolo[1,5-c]pyrimidine]: more than 50%.
To `FC(F)(F)Oc1ccc(-c2cc3c(C(F)(F)C(F)(F)F)cnn3cn2)cc1` [Compound 25b, 3-(1,1,2,2,2-pentafluoroethyl)-5-[4-(trifluoromethoxy)phenyl]pyrazolo[1,5-c]pyrimidine] belongs more than 50%.
As to `Cc1cc(OC(F)(F)F)ccc1-c1cnn2nccc2c1` [Compound 26, 5-[2-methyl-4-(trifluoromethoxy)phenyl]pyrazolo[1,5-b]pyridazine], the inhibition at 1 µM is less than 50%.
For `Cc1cc(OC(F)(F)F)ccc1-c1cnn2ncc(C(F)(F)F)c2c1` [Compound 27, 5-[2-methyl-4-(trifluoromethoxy)phenyl]-3-(trifluoromethyl)pyrazolo[1,5-b]pyridazine], the inhibition at 1 µM is less than 50%.
Take `FC(F)(F)Oc1ccc(-c2cnn3nccc3c2)cc1` [Compound 28, 5-[4-(trifluoromethoxy)phenyl]pyrazolo[1,5-b]pyridazine]: the inhibition at 1 µM is less than 50%.
With `FC(F)(F)Oc1ccc(-c2cnn3ncc(C(F)(F)F)c3c2)cc1` [Compound 29, 5-[4-(trifluoromethoxy)phenyl]-3-(trifluoromethyl)pyrazolo[1,5-b]pyridazine], the inhibition at 1 µM was more than 50%.
With `COCc1cc(OC(F)(F)F)ccc1-c1cnc2ncc(C(F)(F)F)n2c1` [Compound 30, 6-[2-(methoxymethyl)-4-(trifluoromethoxy)phenyl]-3-(trifluoromethyl)imidazo[1,2-a]pyrimidine], the inhibition at 1 µM was less than 50%.
As to `Cc1cc(OC(F)(F)F)ccc1-c1cnc2ncc(C(F)(F)F)n2c1` [Compound 31, 6-[2-methyl-4-(trifluoromethoxy)phenyl]-3-(trifluoromethyl)imidazo[1,2-a]pyrimidine], the inhibition at 1 µM is less than 50%.
For the molecule `Cc1cn2cc(-c3ccc(OC(F)(F)F)cc3)cnc2n1` [Compound 32, 2-methyl-6-[4-(trifluoromethoxy)phenyl]imidazo[1,2-a]pyrimidine], the inhibition at 1 µM was less than 50%.
Turning to `Cc1nc2ncc(-c3ccc(OC(F)(F)F)cc3)cn2c1C(F)(F)F` [Compound 33, 2-methyl-6-[4-(trifluoromethoxy)phenyl]-3-(trifluoromethyl)imidazo[1,2-a]pyrimidine], the inhibition at 1 µM is less than 50%.
Turning to `FC(F)(F)c1ccc(-c2cn3c(C(F)(F)F)cnc3cn2)cc1` [Compound 34, 3-(trifluoromethyl)-6-[4-(trifluoromethyl)phenyl]imidazo[1,2-a]pyrazine], the inhibition at 1 µM was more than 50%.
To `N#CC1(c2ccc(-c3cn4c(C(F)(F)F)cnc4cn3)cc2)CC1` [Compound 35, 1-[4-[3-(trifluoromethyl)imidazo[1,2-a]pyrazin-6-yl]phenyl]cyclopropanecarbonitrile] belongs less than 50%; to `Fc1cc(-c2cn3c(C(F)(F)F)cnc3cn2)cnc1OCC(F)(F)F` [Compound 36, 6-[5-fluoro-6-(2,2,2-trifluoroethoxy)-3-pyridyl]-3-(trifluoromethyl)imidazo[1,2-a]pyrazine], more than 50%.
To `COCc1cc(OC(F)(F)F)ccc1-c1cn2c(C(F)(F)F)cnc2cn1` [Compound 41, 6-[2-(methoxymethyl)-4-(trifluoromethoxy)phenyl]-3-(trifluoromethyl)imidazo[1,2-a]pyrazine] belongs more than 50%; to `COc1cc(OC(F)(F)F)ccc1-c1ccn2ncc(C(F)(F)F)c2c1` [Compound 42, 5-[2-methoxy-4-(trifluoromethoxy)phenyl]-3-(trifluoromethyl)pyrazolo[1,5-a]pyridine], more than 50%; to `N#CC1(c2ccc(-c3ccn4ncc(C(F)(F)F)c4c3)cc2)CC1` [Compound 43, 1-[4-[3-(trifluoromethyl)pyrazolo[1,5-a]pyridin-5-yl]phenyl]cyclopropanecarbonitrile], less than 50%.
As to `COC(C)(C)c1ccc(-c2ccn3ncc(C(F)(F)F)c3c2)cc1` [Compound 44, 5-[4-(1-methoxy-1-methyl-ethyl)phenyl]-3-(trifluoromethyl)pyrazolo[1,5-a]pyridine], the inhibition at 1 µM was less than 50%.
The same measure for `FC(F)(F)COc1ccc(-c2ccn3ncc(C(F)(F)F)c3c2)cn1` [Compound 45, 5-[6-(2,2,2-trifluoroethoxy)-3-pyridyl]-3-(trifluoromethyl)pyrazolo[1,5-a]pyridine]: more than 50%; for `Cc1cc(OC(F)(F)F)ccc1-c1cnn2ncc(C(=O)N(C)C)c2c1` [Compound 50, N,N-dimethyl-5-[2-methyl-4-(trifluoromethoxy)phenyl]pyrazolo [1,5-b]pyridazine-3-carboxamide]: less than 50%.

For the origin of these results see patent US20210188839A1, “COMPOUNDS AND THEIR METHODS OF USE” (Praxis Precision Medicines, Inc., priority 2016, published 2021).
